Data published in patent US20090093010A1, “Method of Detecting Kidney Dysfunction” (University of Manitoba, priority 2004, published 2009).
Entries after “also recorded” stand apart in the source; their conditions may differ. Where a SMILES comes first, the peptide text is derived from it. [ ]: non-standard residue; d: D form. The star is where a group is joined. Sta = CC(C)C[C@H](N)[C@@H](O)CC(=O)O; Isovaleryl = CC(C)CC(=O)*

Legend:
Format in all cases: biochemical, human
[1] = test system: protease family responsible for β2-microglobulin cleavage in urine; test: Determination of the protease family responsible for β2-microglobulin cleavage (urine spiked with intact β2-microglobulin and protease inhibitors, SELDI-TOF-MS); settings: urine at pH 5, intact β2-microglobulin 10 mg/L, 37° C.; pepstatin 14.5 μM, Complete-Mini (EDTA-free) 0.2 tablets/mL, EDTA 20 mM
Experimental: These samples were then analysed by SELDI-TOF-MS immediately (column 1) and after 6 hours of incubation at 37° C. (column 2).
One mL of a urine sample from a healthy individual (total protein 110 mg/L, creatinine 18.9 mM, pH 5) and 1 mL of a urine sample from a patient with an acute clinical rejection episode showing the protein peak clusters (total protein 230 mg/L, creatinine 11.6 mM, pH 5) were incubated for 16 hours at 37° C. to degrade existing intact and cleaved β2-m. Four hundred μL of each sample were mixed with sodium acetate pH 5 (final concentration 166 mM) to ensure, stable pH and divided into four portions of 100 μL. Pepstatin (final concentration 14.5 μM), Complete-Mini (EDTA-free) (final concentration 0.2 tablets/mL), EDTA (final concentration 20 mM) or no protease inhibitors were added to each portion. Another 100 μL of each urine sample was brought to pH 6 by adding MES pH 6 (final concentration 166 mM). […] SELDI-TOF-MS analysis was performed immediately and after 1, 2, 4, 6 and 24 hours of incubation at 37° C.

[2] = test system: serine and/or cysteine proteinases cleaving Y63 and F62 of the β2-microglobulin long chain; test: Inhibition of cleavage of Y63 and F62 on the long chain (I1-Y63) of cleaved β2-microglobulin; settings: occurs even at pH 6; EDTA 20 mmol/L
Excerpt: Further confirmed non-tryptic cleavage sites on the long chain occur at F62 and then at S61, resulting in three major forms of long chains with calculated molecular weights of 7358.19 Da (I1-Y63), 7195.01 Da (I1-F62) and 7047.83 Da (I1-S61) (see FIG. 25B). […] In addition, three cleavage sites on the long chain have been identified by μLC-MS/MS (F22, N24 and C25), however, the resulting fragments were not detectable by SELDI-TOF-MS.

[3] = test system: aspartic proteinase(s) performing initial cleavage of intact urinary β2-microglobulin; test: Inhibition of initial cleavage of intact urinary β2-microglobulin in patient urine at pH 4.5 (SELDI-TOF-MS); settings: patient urine brought to pH 4.5
Experimental: Pepstatin is a well-established inhibitor of aspartic proteinases. […] Different proteinase-inhibitors were added (Pepstatin and Complete Mini EDTA-free, both from Roche, Switzerland).

SMILES | Inhibition of cleavage of intact β2-microglobulin [1] | Inhibition of the cleavage of the two amino acids Y63 and F62 on the long chain [2] | Detectability of the intact form of β2-microglobulin after 6 to 24 hours in urine spiked with proteinase inhibitor [3]
O=C(O)CN(CCN(CC(=O)O)CC(=O)O)CC(=O)O [EDTA] | not | not | 
CC(C)CC(=O)N[C@H](C(=O)N[C@H](C(=O)N[C@@H](CC(C)C)[C@@H](O)CC(=O)N[C@@H](C)C(=O)N[C@@H](CC(C)C)[C@@H](O)CC(=O)O)C(C)C)C(C)C [Pepstatin] (Isovaleryl-VV[Sta]A[Sta]-OH) | could prevent β2-microglobulin cleavages; also recorded: could be inhibited; also recorded: could inhibit β2-microglobulin cleavage | not | still detectable in unchanged intensity; also recorded: can be inhibited
